From patent US9546164B2 (GENENTECH, INC., priority 2013, dated 2017) come the findings set out here.

Where a name gives a salt, the structure may show the parent alone.

Sequence of hNav1.7 (Q15858 other isoform, or with tags, fused parts or gaps): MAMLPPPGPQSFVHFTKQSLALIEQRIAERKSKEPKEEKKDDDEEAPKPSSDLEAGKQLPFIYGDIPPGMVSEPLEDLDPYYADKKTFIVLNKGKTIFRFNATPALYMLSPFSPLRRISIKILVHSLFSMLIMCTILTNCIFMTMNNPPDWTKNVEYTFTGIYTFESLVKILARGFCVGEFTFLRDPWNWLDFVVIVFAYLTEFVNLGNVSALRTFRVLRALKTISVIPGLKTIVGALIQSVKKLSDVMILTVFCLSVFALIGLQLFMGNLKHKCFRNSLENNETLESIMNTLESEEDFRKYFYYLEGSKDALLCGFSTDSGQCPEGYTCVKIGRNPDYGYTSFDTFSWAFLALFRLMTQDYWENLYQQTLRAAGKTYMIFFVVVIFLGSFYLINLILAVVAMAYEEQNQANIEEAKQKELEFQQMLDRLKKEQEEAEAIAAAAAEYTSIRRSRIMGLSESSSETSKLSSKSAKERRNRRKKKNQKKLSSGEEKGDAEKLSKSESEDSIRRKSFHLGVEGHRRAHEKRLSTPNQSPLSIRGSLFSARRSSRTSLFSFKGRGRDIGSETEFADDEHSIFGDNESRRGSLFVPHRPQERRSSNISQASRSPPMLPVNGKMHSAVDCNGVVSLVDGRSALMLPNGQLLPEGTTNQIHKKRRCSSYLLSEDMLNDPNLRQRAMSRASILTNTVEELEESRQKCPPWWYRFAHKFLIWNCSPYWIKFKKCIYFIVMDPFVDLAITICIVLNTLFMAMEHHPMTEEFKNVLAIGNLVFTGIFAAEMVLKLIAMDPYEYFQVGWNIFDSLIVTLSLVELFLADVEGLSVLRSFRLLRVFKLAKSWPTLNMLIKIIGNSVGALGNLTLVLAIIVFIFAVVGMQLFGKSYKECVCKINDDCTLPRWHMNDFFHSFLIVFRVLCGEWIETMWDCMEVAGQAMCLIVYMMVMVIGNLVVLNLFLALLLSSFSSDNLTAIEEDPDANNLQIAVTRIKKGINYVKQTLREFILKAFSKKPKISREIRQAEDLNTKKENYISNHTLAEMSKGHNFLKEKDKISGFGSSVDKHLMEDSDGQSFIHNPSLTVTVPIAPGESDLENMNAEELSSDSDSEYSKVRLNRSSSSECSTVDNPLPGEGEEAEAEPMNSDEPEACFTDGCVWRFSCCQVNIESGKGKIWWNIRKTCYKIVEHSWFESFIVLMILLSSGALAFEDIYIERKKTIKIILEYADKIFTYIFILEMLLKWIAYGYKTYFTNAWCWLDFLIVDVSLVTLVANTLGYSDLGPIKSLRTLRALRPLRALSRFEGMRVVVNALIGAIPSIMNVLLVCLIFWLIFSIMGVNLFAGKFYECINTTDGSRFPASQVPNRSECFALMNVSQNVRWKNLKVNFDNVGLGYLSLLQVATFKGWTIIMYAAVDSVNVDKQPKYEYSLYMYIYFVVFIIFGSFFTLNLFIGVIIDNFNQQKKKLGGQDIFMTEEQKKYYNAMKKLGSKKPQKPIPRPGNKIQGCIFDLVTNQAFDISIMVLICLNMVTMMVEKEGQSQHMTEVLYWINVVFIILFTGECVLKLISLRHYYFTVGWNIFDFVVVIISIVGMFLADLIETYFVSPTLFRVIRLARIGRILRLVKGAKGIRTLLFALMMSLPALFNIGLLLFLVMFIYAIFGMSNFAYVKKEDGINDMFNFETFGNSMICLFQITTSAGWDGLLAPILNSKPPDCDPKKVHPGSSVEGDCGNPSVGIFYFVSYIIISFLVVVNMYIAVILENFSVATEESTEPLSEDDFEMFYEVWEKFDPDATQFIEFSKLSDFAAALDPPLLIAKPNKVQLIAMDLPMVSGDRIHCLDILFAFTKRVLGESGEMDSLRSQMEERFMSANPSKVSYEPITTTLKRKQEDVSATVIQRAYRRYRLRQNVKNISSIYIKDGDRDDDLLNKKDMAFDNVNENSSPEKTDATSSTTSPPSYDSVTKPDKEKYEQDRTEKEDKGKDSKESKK
Sequence of hNav1.7 (Q07699 19-218 partner): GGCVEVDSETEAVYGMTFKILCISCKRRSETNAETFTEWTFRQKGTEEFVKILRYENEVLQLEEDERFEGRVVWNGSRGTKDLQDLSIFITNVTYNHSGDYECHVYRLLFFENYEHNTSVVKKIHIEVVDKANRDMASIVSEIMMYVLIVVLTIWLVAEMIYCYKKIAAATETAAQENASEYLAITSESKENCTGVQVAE

The first experiment addresses hNav1.7 (Homo sapiens (Human), UniProt Q15858). In words: Tritiated sulfonamide competitive binding to membranes from cells expressing hNav1.7 and the β1 subunit.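 Note: Filter-bound radioactivity counted by liquid scintillation, nonspecific binding defined with excess unlabelled ligand, IC50 fitted to percent inhibition of specific binding.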
Details: not given
`O=C(NS(=O)(=O)C1CC1)c1cc(C2CC2)c(O[C@@H]2CCCN(Cc3ccccc3Cl)C2)cc1F` [Example 23, (R)-4-((1-(2-chlorobenzyl)piperidin-3-yl)oxy)-5-cyclopropyl-N-(cyclopropylsulfonyl)-2-fluorobenzamide] gave an IC50 of 1.7 nM.

Still in this experiment, the particulars now being: read-out: Ligand Binding Assay; 100 pM [3H]compound, membranes with hNav1.7 and β1 subunit, 18 h, room temperature.
On to `CS(=O)(=O)NC(=O)c1cc(C2CC2)c(OCC2CCN(Cc3ccc(F)cc3)CC2)cc1F` [Example 161, 5-Cyclopropyl-2-fluoro-4-((1-(4-fluorobenzyl)piperidin-4-yl)methoxy)-N-(methylsulfonyl)benzamide], for which the IC50 amounted to 284 nM.

On to `CCS(=O)(=O)NC(=O)c1cc(C2CC2)c(OCC2CCN([C@@H](c3cc(Cl)cc(Cl)c3)C(F)F)CC2)cc1F` [Example 226, (S)-5-cyclopropyl-4-((1-(1-(3,5-dichlorophenyl)-2,2-difluoroethyl)piperidin-4-yl)methoxy)-N-(ethylsulfonyl)-2-fluorobenzamide], for which the IC50 is 12 nM.

With `O=C(NS(=O)(=O)N1CCC1)c1cc(C2CC2)c(CN2CCC[C@@H](Oc3cc(Cl)cc(Cl)c3)C2)cc1F` [Example 56, (R)—N-(azetidin-1-ylsulfonyl)-5-cyclopropyl-4-((3-(3,5-dichlorophenoxy)piperidin-1-yl)methyl)-2-fluorobenzamide], the IC50 turned out to be 63.5 nM.

For `CS(=O)(=O)NC(=O)c1cc(C2CC2)c(OCC2CN([C@H](c3ccccc3)c3ccccc3F)C2)cc1F` [Example 125, (R)-5-Cyclopropyl-2-fluoro-4-((1-((2-fluorophenyl)(phenyl)methyl)azetidin-3-yl)methoxy)-N-(methylsulfonyl)benzamide], the IC50 came out at 25 nM.

Turning to `C[C@H](c1cc(Cl)cc(Cl)c1)N1CCC(COc2cc(F)c(C(=O)NS(C)(=O)=O)cc2C2CC2)CC1` [Example 99, (R)-5-Cyclopropyl-4-((1-(1-(3,5-dichlorophenyl)ethyl)piperidin-4-yl)methoxy)-2-fluoro-N-(methylsulfonyl)-benzamide], the IC50 is 3.89 nM.

As to `Cc1ccc(CN2CCC[C@@H](Oc3cc(F)c(C(=O)NS(C)(=O)=O)cc3C3CC3)C2)c(C)c1` [Example 423, (R)-5-cyclopropyl-4-((1-(2,4-dimethylbenzyl)piperidin-3-yl)oxy)-2-fluoro-N-(methylsulfonyl)benzamide, trifluoroacetic acid salt], the IC50 amounted to 2.1 nM.

As to `CC(C)N(C(=O)CN1CCC[C@@H](Oc2cc(F)c(C(=O)NS(C)(=O)=O)cc2C2CC2)C1)C(C)C` [Example 179], the IC50 came out at 1800 nM.

As for `CS(=O)(=O)NC(=O)c1cc(C2CC2)c(OCC2CCN(Cc3ccc(C(F)(F)F)c(F)c3)CC2)cc1F` [Example 247, 5-cyclopropyl-2-fluoro-4-((1-(3-fluoro-4-(trifluoromethyl)benzyl)piperidin-4-yl)methoxy)-N-(methylsulfonyl)benzamide], the IC50 turned out to be 8.9 nM.

Take `CC1(COc2cc(F)c(C(=O)NS(C)(=O)=O)cc2C2CC2)CCN(C(=O)c2cc(Cl)c(Cl)cc2F)CC1` [Example 577, 5-cyclopropyl-4-((1-(4,5-dichloro-2-fluorobenzoyl)-4-methylpiperidin-4-yl)methoxy)-2-fluoro-N-(methylsulfonyl)benzamide]: the IC50 stood at 40 nM.

On to `CS(=O)(=O)NC(=O)c1cc(C2CC2)c(OCC2CCN(Cc3ccc(F)c(C(F)(F)F)c3)CC2)cc1F` [Example 189, 5-Cyclopropyl-2-fluoro-4-((1-(4-fluoro-3-(trifluoromethyl)benzyl)piperidin-4-yl)methoxy)-N-(methylsulfonyl)benzamide], for which the IC50 amounted to 16 nM.

Regarding `CS(=O)(=O)NC(=O)c1cc(Cl)c(OCC2CCN(Cc3cc(Cl)cc(OC(F)(F)F)c3)CC2)cc1F` [Example 406, 5-chloro-4-((1-(3-chloro-5-(trifluoromethoxy)benzyl)piperidin-4-yl)methoxy)-2-fluoro-N-(methylsulfonyl)benzamide, trifluoroacetic acid salt], the IC50 was 17.6 nM.
